Molecular target: T1, AfLPMO16 (Aspergillus fumigatus, UniProt A0A7D5FGU2)
T1 sequence (A0A7D5FGU2 20-290 limits assumed): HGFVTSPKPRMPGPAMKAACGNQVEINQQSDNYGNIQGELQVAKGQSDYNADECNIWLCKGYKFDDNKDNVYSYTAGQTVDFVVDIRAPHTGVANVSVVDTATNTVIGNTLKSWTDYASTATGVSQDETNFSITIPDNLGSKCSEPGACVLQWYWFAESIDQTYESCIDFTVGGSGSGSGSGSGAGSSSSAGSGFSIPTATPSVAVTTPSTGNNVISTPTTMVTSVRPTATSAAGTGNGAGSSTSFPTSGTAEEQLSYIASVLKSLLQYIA
Assay: spectrophotometric 1-coerulignone formation at […] nm, Lineweaver-Burk plot
Format: biochemical
Conditions: 5 uM hydrogen peroxide as co-substrate, 100 mM phosphate buffer pH 6.0, 30 C

- Km: 5.4 mM
SMILES: COc1cccc(OC)c1O [2,6-dimethoxyphenol]

Reference: paper doi:10.1101/2020.04.24.059154v2 (biorxiv, 2021)
